Key:
Format in all cases: cell-based
Conditions in all cases: HEK293 cells co-transfected with PPAR LBD-GAL4 and UAS-luciferase; 18-24 hrs treatment
PPAR alpha = biological target: T1, PPAR alpha (Homo sapiens, UniProt Q07869); test: Transfection assay for PPAR receptors (GAL4-LBD luciferase reporter in HEK293 cells), PPAR alpha
T1 construct: expressed in transfected cells; host or cells: HEK293
T1 sequence (Q07869 239-466 limits assumed): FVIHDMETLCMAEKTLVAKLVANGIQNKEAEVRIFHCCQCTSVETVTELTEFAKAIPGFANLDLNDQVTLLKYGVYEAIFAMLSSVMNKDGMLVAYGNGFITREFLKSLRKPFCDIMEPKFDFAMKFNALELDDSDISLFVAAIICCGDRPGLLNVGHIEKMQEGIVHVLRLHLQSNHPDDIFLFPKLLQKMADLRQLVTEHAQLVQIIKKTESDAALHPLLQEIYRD
Experimental: (§1) Transfection Assay Method for PPAR Receptors
(§2) HEK293 cells were grown in DMEM/F12 medium supplemented with 10% FBS and glutamine (Invitrogen) and incubated in a 5% CO2 incubator at 37° C. The cells were co-transfected using DMRIE-C reagent (Invitrogen) in serum free medium (Opti-MEM, Invitrogen) with two mammalian expression plasmids, one containing the DNA sequence coding for the ligand binding domains of either PPARα, γ or 6 fused to the yeast GAL4 DNA binding domain and the other containing the promoter sequence of the yeast GAL4 (UAS) fused to the firefly luciferase cDNA reporter. The next day, the medium was changed to DMEM/F12 medium supplemented with 5% charcoal treated serum (Hyclone) and glutamine. After 6 hrs the cells were trypsinized and seeded at a density of 50,000 cells/well into 96 well plates and incubated overnight as above. The cells were then treated with test compounds or vehicle and incubated for 18-24 hrs as above. Luciferase reporter activity was measured using the Steady-Glo Luciferase Assay Kit from Promega. DMRIE-C Reagent was purchased from GIBCO Cat. No. 10459-014. OPTI-MEM I Reduced Serum Medium was purchased from GIBCO (Cat. No. 31985). Steady-Glo Luciferase Assay Kit was purchased from Promega (Part# E254B).
(§3) A variety of example compounds have been made and tested, with a range of in vitro results. […]

PPAR delta = biological target: T2, PPAR delta (Homo sapiens, UniProt Q03181); test: Transfection assay for PPAR receptors (GAL4-LBD luciferase reporter in HEK293 cells), PPAR delta
T2 construct: expressed in transfected cells; host or cells: HEK293
T2 sequence (Q03181 211-439 limits assumed): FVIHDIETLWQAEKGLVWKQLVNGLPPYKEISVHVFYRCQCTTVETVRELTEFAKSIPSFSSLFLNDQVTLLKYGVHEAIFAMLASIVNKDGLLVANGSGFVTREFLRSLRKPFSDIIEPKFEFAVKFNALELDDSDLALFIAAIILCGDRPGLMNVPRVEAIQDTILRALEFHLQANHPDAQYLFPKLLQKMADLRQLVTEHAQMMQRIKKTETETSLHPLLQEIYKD
Experimental: as §1, §2, §3

PPAR gamma = biological target: T3, PPAR gamma (Homo sapiens, UniProt P37231); test: Transfection assay for PPAR receptors (GAL4-LBD luciferase reporter in HEK293 cells), PPAR gamma
T3 construct: expressed in transfected cells; host or cells: HEK293
T3 sequence (P37231 238-503 limits assumed): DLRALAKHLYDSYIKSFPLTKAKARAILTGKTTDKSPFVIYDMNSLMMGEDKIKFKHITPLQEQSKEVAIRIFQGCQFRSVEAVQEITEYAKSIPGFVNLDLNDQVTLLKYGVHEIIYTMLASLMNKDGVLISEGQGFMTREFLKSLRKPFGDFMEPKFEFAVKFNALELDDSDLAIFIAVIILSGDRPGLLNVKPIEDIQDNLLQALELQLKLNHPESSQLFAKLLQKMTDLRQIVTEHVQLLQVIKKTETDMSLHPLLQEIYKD
Experimental: as §1, §2, §3

## C=C(COc1ccc(OC(F)(F)F)cc1)CSc1ccc(OC(C)(C)C(=O)O)c(C)c1 [Compound 2]
PPAR alpha
  EC50: 900 nM
PPAR delta
  EC50: 41.5 nM
PPAR gamma
  EC50: 899 nM
